Here are results for 5 compounds from patent publication US11702546B2, “Near-infrared heptamethine dyes for generation of singlet oxygen” (California Institute of Technology, priority 2018, dated 2023).

Entries after “also recorded” stand apart in the source; their conditions may differ.

A short description of series [1]: Irradiation experiments with singlet oxygen trap DPBF (NIR laser, absorbance readout vs dark control). In kind it is physicochemical. Particulars: for change in DPBF signal after irradiation: 980 nm laser, 1 W cm-2, CDCl3, 30 minutes, relative to dark control. The protocol: (§1) IR-1061 tetrafluoroborate and dry pyridine were purchased from commercial sources and used as supplied. Deuterated chloroform was purchased from commercial sources and filtered through a neutral alumina plug prior to use to neutralize and dry the solvent. Irradiations at 980 nm were performed using a 1 watt/cm^2 infrared diode laser at 980 nm coupled to a PSU-III-FDA power supply. Irradiations at 1064 nm were performed using an Nd:YAG laser at 1.8 W/cm^2. Absorbance spectra were obtained using an Agilent CARY 60 UV-Vis for spectra below 1000 nm, and a Cary 5000 UV-VIS-NIR for spectra above 1000 nm. Mass spectrometry characterization was performed via MALDI using a BRUKER MALDI/TOF Autoflex Speed and a Waters LCT Premier XE Electrospray TOF. 1H NMR spectra were obtained using a Varian 600 MHz Spectrometer.
Dye was dissolved in deuterated solvent at a concentration that would produce an absorbance near 1 at 980 nm. This was calculated using extinction coefficients determined by absorbance measurements of the dye alone. The IR-1061-acridinium irradiation in water was an exception, as the concentration was kept lower to ensure solubility. Dye solution was split into two aliquots and added to two 1 cm by 1 cm quartz cuvettes purchased from Starna. The absorption spectra were taken for both cuvettes (to ensure the pre-irradiation sample looked the same in both cases), and subsequently one cuvette was irradiated while the other was kept in the dark. A stir bar was used to ensure proper mixing during irradiation. After irradiation, the absorbance of both solutions was again evaluated. […] For the 1064 nm irradiation, the dye was dissolved at a slightly higher concentration to an absorbance of approximately 1.5 at 1064 nm and irradiated for 5 minutes. At this point significant photobleaching of the dye was observed, so additional irradiation was not performed.
The freeze-pump-thaw (FPT) experiment was carried out as follows. Dye was dissolved in deuterated chloroform and added to a FPT that apparatus. Three consecutive freeze-pump-thaw cycles were carried out to a pressure of less than […], at which point the solution was transferred under vacuum to the arm of the apparatus containing a fused 1 cm by 1 cm quartz cuvette (Starna). Irradiation and subsequent absorption measurements were carried out in the sealed cuvette.
The pyridine addition reaction was extremely sensitive to water, but gave good conversion using dry pyridine. […] Despite this inconvenience, the slightly impure dye was used as a proof of principle. For initial singlet oxygen generation experiments, the dye was dissolved in CDCl3—the solvent in which it had the highest solubility—and irradiated using a 1 Wcm^−2 980 nm laser in the presence of a singlet oxygen trap, diphenylisobenzofuran (DPBF). DPBF was selected as a trap because it is a standard in the field and because other popular detectors (such as singlet oxygen sensor green, SOSG) led to precipitation of IR-1061-pyridinium over time.

Series [2] in a line: Stability and solubility observations of the dye. It is filed as physicochemical.
A short description of another series: NIR absorbance spectrum. It is filed as physicochemical. Also on record: dose or concentration left out as unconfirmed. Particulars: CDCl3. The protocol: as §1
The nature of series [3]: Comparative quantum yield experiments (DPBF bleaching vs phenalenone). It is filed as physicochemical. Particulars: chloroform; for relative quantum yield of singlet oxygen generation: 1064 nm, relative to phenalenone, corrected for photon flux; for percent decrease in DPBF signal at 415 nm: 30 seconds. The source says: Phenalenone, a highly efficient singlet oxygen generator with a known singlet oxygen quantum yield of 0.97 in chloroform was used to benchmark the efficiency of IR-1061-acridinium singlet oxygen generation in chloroform. A solution of phenalenone at an absorbance of 0.30 at 365 nm was generated that also contained DPBF at an absorbance of approximately 1.0. This solution was irradiated for 30 seconds using a 365 nm variable power LED (3-300 mW, Thor labs) at 30 mW/cm^2. The percent decrease in DPBF signal at 415 nm was calculated, taking into account any background from phenalenone. This was done in triplicate. A similar experiment was then run using IR-1061-acridinium. A solution containing the dye at an absorbance of 0.30 at 1064 and DPBF at an absorbance of approximately 1.0 was irradiated for 30 seconds using a 1064 nm Nd:YAG laser with a power output of 1.8 W/cm^2. The percent decrease in DPBF signal at 415 nm was then calculated, taking into account any background from IR-1061-acridinium. This was also done in triplicate.
The percent decrease attributed to phenalenone was calculated to be 0.53 and the percent decrease attributed to IR-1061-acridinium was calculated to be 0.29. To account for the difference in photon flux at these two wavelengths, the ratio of the photon flux was calculated, where the photon flux was described by the following equation: PF=I*λ/(h*c*Na). PF stands for photon flux, I is the irradiation intensity, λ is the irradiation wavelength, his Planck's constant, c is the speed of light and Na is Avogadro's number. The ratio of the photon flux was simplified to PFR=(IPhe*λPhe)/(IIR*λIr)=(0.03 W/cm^2*365 nm)/(1.8 W/cm^2*1064 nm)=0.006. Considering this difference in photon flux and phenalenone's known quantum yield of singlet oxygen generation of 0.97, this yielded a relative quantum yield of about 0.003, or 0.3%.

For series [4] the following is noted: in chloroform, irradiation at 365 nm; cited from earlier work.
Setting [5] is: 980 nm, D2O with DMSO-D6 for solubility.
Where [6] appears, read: 1064 nm laser, 1.8 W cm-2, CDCl3, 5 minutes.

Take `ClC1=C(/C=C/c2cc(-c3ccccc3)[s+]c(-c3ccccc3)c2)CCC/C1=C\C=C1C=C(c2ccccc2)SC(c2ccccc2)=C1` [IR-1061, reference compound]: the “change in DPBF signal after irradiation” value in series [1] is listed as “no significant changes in DPBF signal”.

As for `C(/C=C1\CCCC(/C=C/c2cc(-c3ccccc3)[s+]c(-c3ccccc3)c2)=C1[n+]1c2ccccc2cc2ccccc21)=C1C=C(c2ccccc2)SC(c2ccccc2)=C1` [IR-1061-acridinium BArF], the “solubility after counterion exchange BF4- to BArF-” value in series [2] (compared with BF4- salt) is given as “increase in solubility”. In series [1] (980 nm, CDCl3, compared with tetrafluoroborate salt), the “photosensitization capability after counterion exchange BF4- to BArF-” value is “marked decrease in photosensitization capability; also recorded: Reactivity was significantly reduced”.

`C(/C=C1\CCCC(/C=C/c2cc(-c3ccccc3)[s+]c(-c3ccccc3)c2)=C1[n+]1c2ccccc2cc2ccccc21)=C1C=C(c2ccccc2)SC(c2ccccc2)=C1` [IR-1061-acridinium]: the “λmax of NIR absorbance” value in “NIR absorbance spectrum” stood at 1078. Further, the “effect of introduction of protein (BSA)” value in series [2] (BSA added) was “precipitation of the dye”. The “relative quantum yield of singlet oxygen generation” value in series [3] is given as “about 0.003”. The “relative quantum yield of singlet oxygen generation” value in series [3] (approximate) is recorded as around 0.3%. Besides, the “percent decrease in DPBF signal at 415 nm” value in series [3] (1064 nm Nd:YAG laser at 1.8 W/cm2, absorbance 0.30 at 1064, triplicate) was 0.29. For the same compound, the “change in DPBF signal after irradiation” value in series [1] was “significant DPBF photobleaching was observed only after 30 minutes”. In series [1] (setting [5]), the “DPBF degradation rate in water” value was “comparable to those seen in chloroform” and the “photobleaching of the dye in water” value is “high levels of photobleaching”. Also, the “singlet oxygen generation in nonpolar solvents” value in series [1] (980 nm, deuterated nonpolar solvents such as toluene) is given as “no singlet oxygen generation was observed”. The “DPBF degradation in polar aprotic solvents” value in series [1] (980 nm, deuterated polar aprotic solvents such as DMSO) was “decreased DPBF degradation”. The “change in DPBF signal, freeze-pump-thawed sample devoid of oxygen” value in series [1] (980 nm, freeze-pump-thawed CDCl3) is given as “no change in DPBF signal”. For the same compound, in series [1] (setting [6]), the “DPBF photobleaching after irradiation” value is “near complete photobleaching of DPBF; also recorded: Rapid bleaching of both the dye and DPBF signal”; the “bleaching of the dye during irradiation” value is reported as “significant bleaching of the dye”.

In the case of `C(/C=C1\CCCC(/C=C/c2cc(-c3ccccc3)[s+]c(-c3ccccc3)c2)=C1[n+]1ccccc1)=C1C=C(c2ccccc2)SC(c2ccccc2)=C1` [IR-1061-pyridinium], in series [2] (all evaluated purification conditions), the “stability to hydration during purification” value is “too sensitive to isolate in pure form due to hydration”. In addition, the “change in DPBF signal after irradiation” value in series [1] is “significant decrease in the DPBF signal”.

Turning to `O=C1C=Cc2cccc3cccc1c23` [phenalenone, reference compound], the “known singlet oxygen quantum yield” value in series [4] is given as 0.97. Further, the “percent decrease in DPBF signal at 415 nm” value in series [3] (365 nm LED at 30 mW/cm2, absorbance 0.30 at 365 nm, triplicate) is 0.53.
